Assay results taken from PMC6309140, “Synthesis and Evaluation of a New Type of Small Molecule Epigenetic Modulator Containing Imidazo[1,2-b][1,2,4]triazole Motif” (Frontiers in Chemistry, 2018).
Like-named read-outs stand apart in the source and are kept apart here.

Columns and labels:
[1] = test system: EGFP reporter gene silenced by DNA methylation (B2-17 cells); assay: Compound effective assay: derepression of EGFP reporter in B2-17 reporter cells (image-based, titration); format: cell-based; conditions: for Emax: 72 h, read-out: Maximal RGFP% (maximal percentage of EGFP+ cells in the dose-response curve); for Emax / EC50 / Maximal RGFP% (maximal percentage of EGFP+ cells in the dose-response curve): B2-17 cells, 72 h treatment; for EC50: dose-response of EGFP+ cells, read-out: EC50 (relative half maximal effect concentration); for activity of derepressing the EGFP reporter gene silenced by DNA methylation (in words): compared with hit compound LX-3
Excerpt: (§1) To identify novel small molecules targeting gene repression, we devised an image-based high-throughput screening system using the engineered HEK 293 F cell (termed as B2-17 cells) as report cell line. A chemical library containing 308,251 small molecules was screened in this system. Purposed for unbiased compound screening, this library had been used in a variety of studies (Sun et al., [2012]; Wang et al., [2013]; Dong et al., [2015]; Li et al., [2016]). Hundred and fifty eight compounds which reactivated reporter genes in more than half of cells were selected as hits. Next, we performed titration experiments for all these hits in the B2-17 cell line. The efficacy of each compound was evaluated by its maximal percentage of EGFP^+ cells in the dose-response curve (maximal RGFP) and relative half maximal effect concentration (EC50). The toxicity of the hits was also tested in parallel, measured by number of viable cells in each treatment. The assay is based on quantitative analysis of ATP, an indicator of metabolically active cells. For each compound, we calculated the relative half maximal growth inhibitory concentration (IC50), based on the abovementioned assay.
Procedure for cell culture and establishment of the reporter cell line were reported in our previously published paper (Li et al., [2018]).
Before plating cells, 384-well plates (ViewPlate, PerkinElmer) were coated with PDL (poly-D-lysine, Sigma). For each well, 1,300 B2-17 cells were plated by using a Matrix Wellmate microplate dispenser (Thermo Scientific). Then, 0.25 μL of compound was added to each well by using a versatile pipetting robot, the Biomek FX workstation (Beckman Coulter), to give a final compound concentration of 5 μM. After treatment for 72 h, the cell nuclei were stained by Hoechst 33342 (Sigma) before imaging.
The cells were imaged with Opera LX (PerkinElmer, three views per well by using 10 x (air) objective lens). Images were analyzed with the Columbus system, the mean percentage of EGFP+ cells (RGFP) was obtained to extrapolate the number of EGFP expressing cells and Hoechst-stained nuclei.
For the titration assay, the positive compounds were diluted in DMSO at concentrations ranging from 0.625 to 4 mM. Then, the B2-17 cells were treated by gradient compound and imaged as described before.
For each compound, a dose-response series was generated by using Origin 6.0 Pro software. The dot plot was fit by a DoseResp curve and then the EC50 was calculated.

HEK 293 F cells = assay: Viability assays (CellTiter-Glo, ATP); format: cell-based; conditions: viable cells by ATP quantitation, 3 days incubation, Figure 2 says B2-17 cells, method says HEK 293 F cells, read-out: IC50 (relative half maximal growth inhibitory concentration)
Excerpt: as §1
HEK 293 F cells were plated in 384-well, flat-bottom, tissue culture dishes (Corning) and treated with compounds, incubated 3 days, and assayed for viability using the CellTiter-Glo Luminescent Cell Viability Assay (Promega) according to the manufacturer's protocol. The […] with an EnSight plate reader (Perkin Elmer). Data were normalized to the untreated control (100% viability). Each treatment was tested in two independent assays, each containing 3 replicates. The titration-viability curves of each compound were also generated by using Origin 6.0 Pro software.

p38 MAPK pathway = test system: p38 MAPK pathway; parameters: method as in Li et al., 2018; conditions: multiple cell types; ref Li et al., 2018; cited from earlier work
[2] = Water solubility (qualitative remark); format: physicochemical; conditions: 14b vs. 14a

Compound | EC50 [1] [µM] | water solubility (in words) [2] | Emax [1] [%] | IC50 (HEK 293 F cells; HEK293F, 72 h) [µM] | activation of the p38 MAPK pathway (p38 MAPK pathway) | activity of derepressing the EGFP reporter gene silenced by DNA methylation (in words) [1] | Maximal RGFP% (maximal percentage of EGFP+ cells in the dose-response curve) [1] [%] | IC50 (HEK 293 F cells) [µM]
Cc1cc2c(cc1C)n1nc(-c3nccs3)nc1n2CC(=O)c1ccc(Br)cc1 [14b, 1-(4-bromophenyl)-2-(6,7-dimethyl-2-(thiazol-2-yl)-4H-benzo[4,5]imidazo[1,2-b][1,2,4]triazol-4-yl)ethan-1-one] | 3.4 | significantly increased | 58 | 2.1 | – | comparable with the hit compound LX-3 | – | –
(4-bromophenyl) (2-(thiazol-2-yl)-4H-benzo[4,5] imidazo[1,2-b][1,2,4]triazol-4-yl)methanone [31a] | – | – | – | – | – | disappeared | 4.0 | 7.8
O=C(Cn1c2ccccc2n2nc(-c3cccs3)nc12)c1ccccc1 [7a, 1-phenyl-2-(2-(thiophen-2-yl)-4H-benzo[4,5]imidazo[1,2-b][1,2,4]triazol-4-yl)ethan-1-one] | – | – | 7 | 1.9 | – | lost | – | –
O=C(Cn1c2ccccc2n2nc(-c3cccs3)nc12)c1ccc(C(F)(F)F)cc1 [7e, 2-(2-(thiophen-2-yl)-4H-benzo[4,5]imidazo[1,2-b][1,2,4]triazol-4-yl)-1-(4-(trifluoromethyl)phenyl)ethan-1-one] | 3.7 | – | 81 | 4.7 | – | remained the same | – | –
O=C(Cn1c2ccc(Cl)cc2n2nc(-c3cccs3)nc12)c1ccc(Br)cc1 [compound 19, 1-(4-bromophenyl)-2-(7-chloro-2-(thiophen-2-yl)-4H-benzo[4,5]imidazo[1,2-b][1,2,4]triazol-4-yl)ethan-1-one] | 14.9 | – | 63 | 14.3 | – | significantly decreased | – | –
2-(4-bromophenyl)-1-(2-(thiazol-2-yl)-4H-benzo[4,5] imidazo[1,2-b][1,2,4]triazol-4-yl)ethan-1-one [31b] | – | – | – | – | – | loss of activity | 6.0 | 11.5
Nc1ccc(C(=O)Cn2c3ccccc3n3nc(-c4cccs4)nc23)cc1 [7i, 1-(4-aminophenyl)-2-(2-(thiophen-2-yl)-4H-benzo[4,5]imidazo[1,2-b][1,2,4]triazol-4-yl)ethan-1-one] | – | – | 19 | 5.3 | – | decreased to some extent | – | –
O=C(Cn1c2ccccc2n2nc(-c3ccc(Cl)s3)nc12)c1ccc(Br)cc1 [compound 29, 1-(4-bromophenyl)-2-(2-(5-chlorothiophen-2-yl)-4H-benzo[4,5]imidazo[1,2-b][1,2,4]triazol-4-yl)ethan-1-one] | 8.9 | – | 83 | 13.6 | – | little reduction of potency | – | –
3-(4-bromophenyl)-1-(2-(thiazol-2-yl)-4H-benzo[4,5] imidazo[1,2-b][1,2,4]triazol-4-yl)propan-1-one [31c] | – | – | – | – | – | loss of activity | 9.0 | 15.9
O=C(Cn1c2ccc(Br)cc2n2nc(-c3cccs3)nc12)c1ccc(Br)cc1 [17a, 2-(7-bromo-2-(thiophen-2-yl)-4H-benzo[4,5]imidazo[1,2-b][1,2,4]triazol-4-yl)-1-(4-bromophenyl)ethan-1-one] | 19.4 | – | 41 | 6.6 | – | significantly decreased | – | –
O=C(Cn1c2ccccc2n2nc(-c3cccs3)nc12)c1ccncc1 [9d, 1-(pyridin-4-yl)-2-(2-(thiophen-2-yl)-4H-benzo[4,5]imidazo[1,2-b][1,2,4]triazol-4-yl)ethan-1-one] | 13.6 | – | 35 | 6.5 | – | – | – | –

Second part, led by results:

EC50 [1] [µM] | water solubility (in words) [2] | Compound | Emax [1] [%] | IC50 (HEK 293 F cells; HEK293F, 72 h) [µM] | activation of the p38 MAPK pathway (p38 MAPK pathway) | activity of derepressing the EGFP reporter gene silenced by DNA methylation (in words) [1] | Maximal RGFP% (maximal percentage of EGFP+ cells in the dose-response curve) [1] [%] | IC50 (HEK 293 F cells) [µM]
4.1 | – | Cc1n[nH]c(Nc2ccc(/N=N/c3ccccc3)cc2)c1[N+](=O)[O-] [LX-5] | 89 | 4.2 | selectively activate the p38 MAPK pathway | – | – | –
2 | – | O=C(Cn1c2ccccc2c(=O)c2ccccc21)N/N=C/c1ccc(Sc2nc3ccccc3s2)c([N+](=O)[O-])c1 [LX-4] | 68 | 4.2 | selectively activate the p38 MAPK pathway | – | – | –
1.9 | – | COc1ccc(NC(=O)c2ccco2)cc1NC(=O)c1ccc(-c2cccc([N+](=O)[O-])c2)o1 [LX-7] | 79 | 3.2 | – | – | – | –
2.8 | – | O=C(Cn1c2ccccc2n2nc(-c3cccs3)nc12)c1ccc(Br)cc1 [LX-3, 1-(4-bromophenyl)-2-(2-(thiophen-2-yl)-4H-benzo[4,5]imidazo[1,2-b][1,2,4]triazol-4-yl)ethan-1-one] | 79 | 5.1 | selectively activate the p38 MAPK pathway | – | – | –
